The values that follow come from patent US20260217767A1, “NOVEL A4B7 THIOETHER PEPTIDE DIMER ANTAGONISTS” (Protagonist Therapeutics, Inc., priority 2014, published 2026).

“And” between values parts separate entries of the source, which are not always exact repeats. Identical values can stand only once. *1 amine or outer side, *2 acyl side, *3 side chain or, on linkers, in order; H or OH if unused. Where a SMILES comes first, the peptide text is derived from it. Bridges are numbered along the chain shown (N, C = ends). Roman numbers before positions name the chains, in order. [ ]: non-standard residue; d: D form. Bip = N[C@@H](Cc1ccc(-c2ccccc2)cc1)C(=O)O; 1Nal = N[C@@H](Cc1cccc2ccccc12)C(=O)O; Diglycolyl = O=C(COCC(=O)[*:2])[*:1]; NMeR = CN[C@@H](CCCNC(=N)N)C(=O)O; Tic = O=C(O)[C@@H]1Cc2ccccc2CN1; X1 = O=C(c1ccccc1C[*:2])[*:1]; Pen = CC(C)(S)[C@H](N)C(=O)O Some results are limits rather than exact numbers.

For one series, the target named is T1, α4β1 (Homo sapiens, UniProt P05556+P13612).
T1 construct: purchased R&D Systems 5668-A4
T1 sequence (P13612 34-977 limits assumed): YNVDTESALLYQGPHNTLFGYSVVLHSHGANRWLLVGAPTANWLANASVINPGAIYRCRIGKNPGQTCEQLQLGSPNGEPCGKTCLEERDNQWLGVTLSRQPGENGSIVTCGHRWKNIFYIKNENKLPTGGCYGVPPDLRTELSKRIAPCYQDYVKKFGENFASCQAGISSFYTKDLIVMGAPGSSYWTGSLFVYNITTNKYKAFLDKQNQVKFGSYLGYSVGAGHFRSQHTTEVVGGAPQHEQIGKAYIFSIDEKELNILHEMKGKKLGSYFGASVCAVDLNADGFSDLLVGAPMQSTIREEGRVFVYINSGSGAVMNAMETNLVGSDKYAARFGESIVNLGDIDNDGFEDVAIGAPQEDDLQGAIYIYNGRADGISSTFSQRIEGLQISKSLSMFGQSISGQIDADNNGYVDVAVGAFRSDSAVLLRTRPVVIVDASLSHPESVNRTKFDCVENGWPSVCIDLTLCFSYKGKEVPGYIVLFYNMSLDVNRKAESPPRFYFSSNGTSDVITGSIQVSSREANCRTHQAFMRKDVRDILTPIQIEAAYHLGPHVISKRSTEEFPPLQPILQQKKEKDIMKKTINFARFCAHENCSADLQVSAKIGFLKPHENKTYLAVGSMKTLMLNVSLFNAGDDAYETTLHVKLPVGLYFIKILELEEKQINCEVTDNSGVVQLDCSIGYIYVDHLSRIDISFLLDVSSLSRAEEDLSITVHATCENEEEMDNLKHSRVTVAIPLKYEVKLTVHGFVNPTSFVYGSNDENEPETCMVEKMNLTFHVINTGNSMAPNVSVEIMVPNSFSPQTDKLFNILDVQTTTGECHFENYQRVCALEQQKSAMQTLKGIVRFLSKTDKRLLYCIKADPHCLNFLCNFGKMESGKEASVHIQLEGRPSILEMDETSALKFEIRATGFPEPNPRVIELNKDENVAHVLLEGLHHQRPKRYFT
T1 sequence (P05556 21-728 limits assumed): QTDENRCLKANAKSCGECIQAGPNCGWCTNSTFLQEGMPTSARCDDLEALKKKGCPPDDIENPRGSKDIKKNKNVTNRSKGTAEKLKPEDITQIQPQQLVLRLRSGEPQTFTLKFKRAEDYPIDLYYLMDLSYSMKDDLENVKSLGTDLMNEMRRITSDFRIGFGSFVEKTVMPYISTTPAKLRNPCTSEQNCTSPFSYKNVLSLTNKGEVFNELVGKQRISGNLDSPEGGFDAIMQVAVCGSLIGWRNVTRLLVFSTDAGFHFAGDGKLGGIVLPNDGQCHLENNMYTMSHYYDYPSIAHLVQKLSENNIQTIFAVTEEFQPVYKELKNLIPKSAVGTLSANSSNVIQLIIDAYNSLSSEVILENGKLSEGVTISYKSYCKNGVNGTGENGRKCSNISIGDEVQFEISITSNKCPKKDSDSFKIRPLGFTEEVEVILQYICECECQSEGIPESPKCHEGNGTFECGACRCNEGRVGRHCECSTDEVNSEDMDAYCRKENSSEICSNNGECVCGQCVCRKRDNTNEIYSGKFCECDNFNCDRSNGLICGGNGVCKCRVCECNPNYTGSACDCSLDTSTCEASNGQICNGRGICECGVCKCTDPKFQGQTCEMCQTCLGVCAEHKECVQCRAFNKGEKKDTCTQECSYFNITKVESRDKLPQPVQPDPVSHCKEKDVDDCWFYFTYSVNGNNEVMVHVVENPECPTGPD
Put plainly: α4β1-VCAM Competition ELISA. It counts as binding. The note with it: thioether peptide dimers, Table 7; read-out: ELISA A4B1. The essentials: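 rh VCAM-1-Fc coated plates; α4β1 (final 60 nM) and peptide (final 100 μM) incubated 2 h at 37° C. in 50 mM Tris-HCl pH 7.6, 100 mM NaCl, 1 mM MnCl2 or MgCl2, 0.05% Tween-20. Bound integrin detected with anti-CD49d 9F10 and HRP anti-mouse IgG, TMB read at 450 nm.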
A general note: ELISA stands for enzyme-linked immunosorbent assay.

For another series, the target named is Jurkat E6.1 cells (Homo sapiens, UniProt P05556+P13612). Put plainly: α4β1-VCAM Cell Adhesion Assay. The note with it: thioether peptide dimers, Table 7; read-out: Cell Adhesion A4B1. Type of series: cell-based. The essentials: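 Jurkat E6.1 cells (200,000 per well, in DMEM with 0.1% BSA and 1 mM MnCl2) allowed to adhere to rh VCAM-1 Fc-coated wells with serially diluted peptide for 30-45 min at 37° C. After washing, bound cells quantified by MTT absorbance at 570 nm, cell-free background subtracted, for dose response.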
Jurkat E6.1 cells, sequence (P13612 34-1032): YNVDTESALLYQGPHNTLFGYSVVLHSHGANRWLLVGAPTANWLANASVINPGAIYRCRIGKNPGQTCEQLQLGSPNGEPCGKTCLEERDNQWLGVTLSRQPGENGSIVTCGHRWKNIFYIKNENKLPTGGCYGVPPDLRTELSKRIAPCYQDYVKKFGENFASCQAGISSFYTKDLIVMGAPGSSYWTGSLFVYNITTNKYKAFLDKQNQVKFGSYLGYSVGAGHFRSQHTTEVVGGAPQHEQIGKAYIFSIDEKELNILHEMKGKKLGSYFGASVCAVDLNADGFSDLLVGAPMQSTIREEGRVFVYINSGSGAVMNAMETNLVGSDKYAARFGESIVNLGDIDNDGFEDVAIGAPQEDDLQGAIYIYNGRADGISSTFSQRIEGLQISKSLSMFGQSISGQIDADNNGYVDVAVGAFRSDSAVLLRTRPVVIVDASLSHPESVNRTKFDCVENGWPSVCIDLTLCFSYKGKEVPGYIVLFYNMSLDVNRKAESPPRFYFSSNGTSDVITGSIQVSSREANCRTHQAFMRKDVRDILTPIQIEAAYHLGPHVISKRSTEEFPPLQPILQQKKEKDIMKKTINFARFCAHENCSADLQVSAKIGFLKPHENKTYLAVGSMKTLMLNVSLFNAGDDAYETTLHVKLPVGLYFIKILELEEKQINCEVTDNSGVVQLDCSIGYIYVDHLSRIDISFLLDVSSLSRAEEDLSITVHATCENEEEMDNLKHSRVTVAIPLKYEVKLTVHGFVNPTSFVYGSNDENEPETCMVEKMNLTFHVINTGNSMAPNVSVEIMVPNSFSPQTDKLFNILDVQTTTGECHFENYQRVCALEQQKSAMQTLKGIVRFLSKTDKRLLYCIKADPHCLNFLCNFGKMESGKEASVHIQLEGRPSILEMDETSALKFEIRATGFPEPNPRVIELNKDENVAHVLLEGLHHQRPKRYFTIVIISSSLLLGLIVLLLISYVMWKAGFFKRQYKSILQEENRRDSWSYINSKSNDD
Jurkat E6.1 cells, sequence (P05556 21-798): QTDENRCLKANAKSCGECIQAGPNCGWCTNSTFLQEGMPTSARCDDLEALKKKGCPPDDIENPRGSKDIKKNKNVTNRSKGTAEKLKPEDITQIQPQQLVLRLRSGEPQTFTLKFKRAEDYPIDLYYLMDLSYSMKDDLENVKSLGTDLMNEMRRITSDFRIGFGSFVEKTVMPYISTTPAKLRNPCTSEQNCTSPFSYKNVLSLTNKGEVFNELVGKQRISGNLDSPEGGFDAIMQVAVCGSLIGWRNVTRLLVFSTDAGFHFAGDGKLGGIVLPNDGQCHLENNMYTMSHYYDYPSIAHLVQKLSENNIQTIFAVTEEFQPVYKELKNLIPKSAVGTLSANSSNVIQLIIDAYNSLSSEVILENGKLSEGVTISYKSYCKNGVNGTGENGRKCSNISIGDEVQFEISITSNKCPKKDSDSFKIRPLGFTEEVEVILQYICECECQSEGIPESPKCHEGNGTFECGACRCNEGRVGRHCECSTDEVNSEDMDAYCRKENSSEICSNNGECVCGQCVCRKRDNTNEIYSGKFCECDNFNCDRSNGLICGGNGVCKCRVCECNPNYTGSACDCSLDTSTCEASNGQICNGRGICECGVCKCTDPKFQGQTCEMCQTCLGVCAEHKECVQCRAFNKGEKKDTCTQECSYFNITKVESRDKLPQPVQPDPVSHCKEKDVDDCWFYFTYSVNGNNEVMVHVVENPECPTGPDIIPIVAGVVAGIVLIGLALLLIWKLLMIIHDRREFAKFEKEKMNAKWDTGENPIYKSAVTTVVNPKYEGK

Series [1] in a line: Simulated Intestinal Fluid (SIF) Stability Assay. Type of series: in vitro ADME. The note with it: 37° C., dimers, Table 7; for half-life at 22 μM: simulated intestinal fluid (SIF) with 1% porcine pancreatin, pH 6.5, porcine pancreatin; for half-life / SIF (Porcine) (half-life, min): porcine pancreatin. The essentials:
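Percent peptide remaining over time was measured by LC-MS/MS as the peak-area ratio to internal standard, and a first-order decay fit gave half-life. Digests contained 22 μM peptide and 1% pancreatin in pH 6.5 FaSSIF buffer at 37° C. Aliquots were quenched in organic solvent with formic acid.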

The term half-life denotes the time needed for the level to fall by half in the phase considered. A lower half-life goes with fast loss. Consider `CC(C)C[C@@H]1NC(=O)[C@H]([C@@H](C)O)NC(=O)[C@H](CC(=O)O)NC(=O)[C@H](CO)NC(=O)[C@H](CCCNC(=N)N)N(C)C(=O)c2ccccc2CSC(C)(C)[C@@H](C(=O)N[C@@H](Cc2cccc3ccccc23)C(=O)N[C@H](CCC(=O)O)C(=O)N[C@H](CCCCNC(=O)COCC(=O)NCCCC[C@@H](NC(=O)[C@@H](CCC(=O)O)NC(=O)[C@H](Cc2cccc3ccccc23)NC(=O)[C@H]2NC(=O)[C@H](CC(C)C)NC(=O)[C@H]([C@@H](C)O)NC(=O)[C@H](CC(=O)O)NC(=O)[C@H](CO)NC(=O)[C@H](CCCNC(=N)N)N(C)C(=O)c3ccccc3CSC2(C)C)C(N)=O)C(N)=O)NC1=O` [compound 158] (I: [NMeR]SDTL[Pen][1Nal][dE][dK]-NH2 / II: [NMeR]SDTL[Pen][1Nal][dE][dK]-NH2; linker I:9-II:9 via Diglycolyl; linker I:N-I:6, II:N-II:6 via X1), for which the IC50 is 100 to 1000 nM on α4β1 and > 100000 nM at Jurkat E6.1 cells. Further, the half-life at 22 μM in series [1] (pig) was > 3 h.

`CC(C)C[C@@H]1NC(=O)[C@H]([C@@H](C)O)NC(=O)[C@H](CC(=O)O)NC(=O)[C@H](CO)NC(=O)[C@H](CCCNC(=N)N)N(C)C(=O)c2ccccc2CSC(C)(C)[C@@H](C(=O)N[C@@H](Cc2cccc3ccccc23)C(=O)N[C@@H](CCC(=O)O)C(=O)N[C@H](CCCCNC(=O)COCC(=O)NCCCC[C@@H](NC(=O)[C@H](CCC(=O)O)NC(=O)[C@H](Cc2cccc3ccccc23)NC(=O)[C@H]2NC(=O)[C@H](CC(C)C)NC(=O)[C@H]([C@@H](C)O)NC(=O)[C@H](CC(=O)O)NC(=O)[C@H](CO)NC(=O)[C@H](CCCNC(=N)N)N(C)C(=O)c3ccccc3CSC2(C)C)C(N)=O)C(N)=O)NC1=O` [compound 167] (I: [NMeR]SDTL[Pen][1Nal]E[dK]-NH2 / II: [NMeR]SDTL[Pen][1Nal]E[dK]-NH2; linker I:9-II:9 via Diglycolyl; linker I:N-I:6, II:N-II:6 via X1): the IC50 was 25 to 100 nM at α4β1 and > 100000 nM at Jurkat E6.1 cells. Further, the half-life in series [1] (simulated gi fluid) is < 0.333 h.

For `CC(C)C[C@@H]1NC(=O)[C@H]([C@@H](C)O)NC(=O)[C@H](CC(=O)O)NC(=O)[C@H](CO)NC(=O)[C@H](CCCNC(=N)N)N(C)C(=O)c2ccccc2CSC(C)(C)[C@@H](C(=O)N[C@@H](Cc2ccc(-c3ccccc3)cc2)C(=O)N[C@H](CCC(=O)O)C(=O)N[C@H](CCCCN)C(N)=O)NC1=O` [compound 178] (HELM PEPTIDE1{[meR].S.D.T.L.[Pen].[O=C([C@H](Cc1ccc(-c2ccccc2)cc1)N[*:1])[*:2]].[dE].[dK].[am]}|CHEM1{[O=C(c1ccccc1C[*:2])[*:1]]}$PEPTIDE1,CHEM1,1:R1-1:R1|PEPTIDE1,CHEM1,6:R3-1:R2$$$V2.0), the figures for the IC50 on α4β1 and on Jurkat E6.1 cells were 100 to 1000 nM and > 1000 nM, respectively. For the same molecule, in series [1] (pig), the half-life at 22 μM is > 3 h. The “SIF (Porcine) (half-life, min)” value in series [1] was >180 (266), min and >180 min.

On to `CC(C)C[C@@H]1NC(=O)[C@H]([C@@H](C)O)NC(=O)[C@H](CC(=O)O)NC(=O)[C@H](CO)NC(=O)[C@H](CCCNC(=N)N)N(C)C(=O)c2ccccc2CSC[C@@H](C(=O)N2Cc3ccccc3C[C@H]2C(=O)N[C@H](CCC(=O)O)C(=O)N[C@H](CCCCNC(=O)COCC(=O)NCCCC[C@@H](NC(=O)[C@@H](CCC(=O)O)NC(=O)[C@@H]2Cc3ccccc3CN2C(=O)[C@@H]2CSCc3ccccc3C(=O)N(C)[C@@H](CCCNC(=N)N)C(=O)N[C@@H](CO)C(=O)N[C@@H](CC(=O)O)C(=O)N[C@@H]([C@@H](C)O)C(=O)N[C@@H](CC(C)C)C(=O)N2)C(N)=O)C(N)=O)NC1=O` [compound 184] (I: [NMeR]SDTLC[Tic][dE][dK]-NH2 / II: [NMeR]SDTLC[Tic][dE][dK]-NH2; linker I:9-II:9 via Diglycolyl; linker I:N-I:6, II:N-II:6 via X1), for which the values for the IC50 at α4β1 and at Jurkat E6.1 cells were 100 to 1000 nM and > 100000 nM, respectively. Further, the half-life at 22 μM in series [1] (pig) is > 3 h. In addition, the “SIF (Porcine) (half-life, min)” value in series [1] is listed as >180 min.

On to `CC(C)C[C@@H]1NC(=O)[C@H]([C@@H](C)O)NC(=O)[C@H](CC(=O)O)NC(=O)[C@H](CO)NC(=O)[C@H](CCCNC(=N)N)N(C)C(=O)c2ccccc2CSC(C)(C)[C@@H](C(=O)N[C@@H](Cc2ccccc2)C(=O)N[C@H](CCC(=O)O)C(=O)N[C@H](CCCCNC(=O)COCC(=O)NCCCC[C@@H](NC(=O)[C@@H](CCC(=O)O)NC(=O)[C@H](Cc2ccccc2)NC(=O)[C@H]2NC(=O)[C@H](CC(C)C)NC(=O)[C@H]([C@@H](C)O)NC(=O)[C@H](CC(=O)O)NC(=O)[C@H](CO)NC(=O)[C@H](CCCNC(=N)N)N(C)C(=O)c3ccccc3CSC2(C)C)C(=O)O)C(=O)O)NC1=O` [compound 204] (I: [NMeR]SDTL[Pen]F[dE][dK]-OH / II: [NMeR]SDTL[Pen]F[dE][dK]-OH; linker I:9-II:9 via Diglycolyl; linker I:N-I:6, II:N-II:6 via X1), for which the figures for the IC50 on α4β1 and at Jurkat E6.1 cells were 100 to 1000 nM and > 100000 nM, respectively. For the same molecule, the half-life in series [1] (pig) is > 3 h.

Consider `CC(C)C[C@@H]1NC(=O)[C@H]([C@@H](C)O)NC(=O)[C@H](CC(=O)O)NC(=O)[C@H](CO)NC(=O)[C@H](CCCNC(=N)N)N(C)C(=O)c2ccccc2CSC[C@@H](C(=O)N2Cc3ccccc3C[C@H]2C(=O)N[C@H](CCC(=O)O)C(=O)N[C@H](CCCCNC(=O)COCC(=O)NCCCC[C@@H](NC(=O)[C@@H](CCC(=O)O)NC(=O)[C@@H]2Cc3ccccc3CN2C(=O)[C@@H]2CSCc3ccccc3C(=O)N(C)[C@@H](CCCNC(=N)N)C(=O)N[C@@H](CO)C(=O)N[C@@H](CC(=O)O)C(=O)N[C@@H]([C@@H](C)O)C(=O)N[C@@H](CC(C)C)C(=O)N2)C(=O)O)C(=O)O)NC1=O` [compound 207] (I: [NMeR]SDTLC[Tic][dE][dK]-OH / II: [NMeR]SDTLC[Tic][dE][dK]-OH; linker I:9-II:9 via Diglycolyl; linker I:N-I:6, II:N-II:6 via X1), for which the IC50 was 100 to 1000 nM at α4β1 and > 100000 nM at Jurkat E6.1 cells. The half-life in series [1] (pig) is > 3 h.

Regarding `CC(C)C[C@@H]1NC(=O)[C@H]([C@@H](C)O)NC(=O)[C@H](CC(=O)O)NC(=O)[C@H](CO)NC(=O)[C@H](CCCNC(=N)N)N(C)C(=O)c2ccccc2CSC(C)(C)[C@@H](C(=O)N[C@@H](Cc2ccc(-c3ccccc3)cc2)C(=O)N[C@H](CCC(=O)O)C(=O)N[C@H](CCCCNC(=O)COCC(=O)NCCCC[C@@H](NC(=O)[C@@H](CCC(=O)O)NC(=O)[C@H](Cc2ccc(-c3ccccc3)cc2)NC(=O)[C@H]2NC(=O)[C@H](CC(C)C)NC(=O)[C@H]([C@@H](C)O)NC(=O)[C@H](CC(=O)O)NC(=O)[C@H](CO)NC(=O)[C@H](CCCNC(=N)N)N(C)C(=O)c3ccccc3CSC2(C)C)C(=O)O)C(=O)O)NC1=O` [compound 208] (I: [NMeR]SDTL[Pen][Bip][dE][dK]-OH / II: [NMeR]SDTL[Pen][Bip][dE][dK]-OH; linker I:9-II:9 via Diglycolyl; linker I:N-I:6, II:N-II:6 via X1), the IC50 at α4β1 was 25 to 100 nM; on Jurkat E6.1 cells, > 100000 nM. In addition, the half-life in series [1] (pig) is > 3 h.

With `CC(C)C[C@@H]1NC(=O)[C@H]([C@@H](C)O)NC(=O)[C@H](CC(=O)O)NC(=O)[C@H](CO)NC(=O)[C@H](CCCNC(=N)N)N(C)C(=O)c2ccccc2CSC(C)(C)[C@@H](C(=O)N[C@@H](Cc2c[nH]c3ccccc23)C(=O)N[C@H](CCC(=O)O)C(=O)N[C@H](CCCCNC(=O)COCC(=O)NCCCC[C@@H](NC(=O)[C@@H](CCC(=O)O)NC(=O)[C@H](Cc2c[nH]c3ccccc23)NC(=O)[C@H]2NC(=O)[C@H](CC(C)C)NC(=O)[C@H]([C@@H](C)O)NC(=O)[C@H](CC(=O)O)NC(=O)[C@H](CO)NC(=O)[C@H](CCCNC(=N)N)N(C)C(=O)c3ccccc3CSC2(C)C)C(=O)O)C(=O)O)NC1=O` [compound 209] (I: [NMeR]SDTL[Pen]W[dE][dK]-OH / II: [NMeR]SDTL[Pen]W[dE][dK]-OH; linker I:9-II:9 via Diglycolyl; linker I:N-I:6, II:N-II:6 via X1), the results for the IC50 at α4β1 and on Jurkat E6.1 cells were 100 to 1000 nM and > 100000 nM, respectively. In addition, the half-life in series [1] (pig) is > 3 h.
